From US11065201B2, “Gel formulations for local drug release” (TECHNICAL UNIVERSITY OF DENMARK, priority 2014, dated 2021)
Blank lines part the entries; values can stand above or below the compound they belong to.

Assays:
[1] = cited from earlier work
[2] = test system: FaDu Head and Neck xenografts; assay: Diffusion of Hoechst evaluated by fluorescent imaging of tumor cryo-sections; format: in vivo, NMRI nude mice
Method: Formulations of lactose isobutyrate:X-SAIB (contrast agent): EtOH and DMSO with composition of 1)75:5:15:5, 2) 77, 5:5:12, 5:5 and 2) 80:5:10:5 were prepared along with formulations of lactose acetate:propionate(1:1):X-SAIB(contrast agent): EtOH and DMSO in 75:5:15:5 ratio. All of the gel formulations were prepared with ˜0.7‰ of Hoechst 33342, as model of a DNA binding drug. 25-30 uL of each gel was injected into FaDu Head and Neck xenografts grown on the flank of NMRI nude mice (groups of 4-8 mice were injected with each formulation). Release and gel-stability was monitored for a maximum of 5-6 days. 2-3 mice were sacrificed at predetermined times (day 1, middle of the experimental period and at the end of the experimental period). The tumors were excised and snap-frozen with liquid N2 to preserve the tumor tissue for histological examination. Stability of the radiopaque gel-depots was evaluated by micro-CT imaging (see FIG. 18). Only the lactose isobutyrate gel was subjected to X-rays, to evaluate the effect of radiation on gel-stability. […] Diffusion of Hoechst was evaluated by fluorescent imaging of the tumor cryo-sections (see FIG. 19).

[3] = Gel formation after injection of sugar ester formulations into PBS buffer; format: physicochemical; details: for injection into PBS and gel-formation: formulated with 35% and 20% propylene carbonate, respectively
Method: The gel-forming properties of the synthesized esters containing only small percentages of organic solvents and/or triglycerides were inspected in the following experiments
˜210 mg of the following sugar ester formulations: α,β Lactose octaacetate: α,β Lactose octaisobutyrate 5:1, α,β Lactose octaacetate: α,β Lactose octaisobutyrate 2:1, α,β Lactose octaacetate: α,β Lactose octaisobutyrate 1:1, α,β Lactose octaacetate: α,β Lactose octapropionate 1:1, α,β Lactose octaacetate: α,β Lactose octapropionate 1:5, α,β Lactose octaacetate: α,β Lactose octapropionate 1:3, α,β Lactose octapropionate: α,β Lactose octaisobutyrate 1:1, α,β Lactose octaacetate: α,β Lactose octaisobutyrate 1:5, α,β Lactose octapropionate, α,β Lactose octaisobutyrate: α,β Lactose octaacetate 0.5:0.5:5, α,β Lactose octaisobutyrate: α,β Lactose octaacetate 3:1, Trehalose octaacetate:Trehalose octapropionate 1:1, Trehalose octapropionate, Trehalose octaisobutyrate, Raffinose undecaacetate:Raffinose undecapropionate 1:1, Raffinose undecaisobutyrate, β-maltose octaisobutyrate and α,β-D-glucosamine pentapropionate were mixed with 20 wt % EtOH by heating to ˜37° C., vortexing and ultrasonication. ˜50-80 uL of the resulting formulations were then injected into 2 mL of PBS buffer using 25 G needles.
˜210 mg of the following sugar ester formulations: α,β Lactose octaacetate, α,β lactose octapropionate, α,β Lactose octaacetate: α,β lactose octapropionate 1:1, α,β lactose octaisobutyrate, α,β maltose octapropionate, β maltose octapropionate, α-D-glucosamine pentapropionate, α, β-D-glucosamine pentapropionate, β maltose octapropionate: α-D-glucosamine pentapropionate 1:1 and α-D-glucosamine pentaisobutyrate were mixed with 20 wt % NMP or DMSO by heating to ˜37° C., vortexing and ultrasonication. ˜50-60 uL of the resulting formulations were injected into PBS. With maltose octapropionate, glucosamine pentapropionate and lactose octaacetate alternative wt % of solvents were also tried (i.e. 25-40 wt % of the before mentioned solvents). […] In case of α,β-maltose propionate and α,β-D-glucosamine pentapropionate, injection into PBS and gel-formation are also successful when formulated with 35% and 20% propylene carbonate, respectively (examples shown in FIG. 1). Pure α-D-Glucosamine esters and hydrophilic maltose ester analogues have a tendency to form hard amorphous solids with some crystallinity after injection into PBS—so although ˜20 wt % solvent is possible to inject with difficulty, gels of this type containing ˜25-35 wt % solvent are easier to handle.
˜210 mg of α,β Lactose octaacetate: α,β Lactose octapropionate 1:1 or α,β Lactose octaisobutyrate were mixed with 2, 5 or 10 wt % glycerol trioctanoate, 5% DMSO and EtOH was added to give 20 wt % solvent in total for all formulations. In case of lactose octaisobutyrate, formulations containing 15 wt % glycerol trioctanoate and 5% DMSO, 30 wt % glycerol trioctanoate and 5% NMP/DMSO or 40 wt % glycerol trioctanoate alone were also made. The solutions were mixed by heating to ˜37° C., vortexing and ultrasonication. ˜40-60 uL of the resulting formulations were injected into PBS.

[4] = 20 wt % EtOH, ~50-80 uL injected into 2 mL PBS buffer, 25 G needles
[5] = 20 wt % NMP or DMSO (25-40 wt % also tried for some), ~50-60 uL injected into PBS

Compound: O=C([O-])c1ccccc1-c1c2cc(Br)c(=O)c(Br)c-2oc2c(Br)c([O-])c(Br)cc12.[Na+].[Na+] [Eosin Y]
Log P [1]: ~6.4

Compound: CCOc1ccc(-c2nc3ccc(-c4nc5ccc(N6CCN(C)CC6)cc5[nH]4)cc3[nH]2)cc1 [Hoechst 33342]
release of Hoechst into the tumors ([2]; from gel depots, ~0.7‰ Hoechst 33342, tumor cryo-sections): confirmed release of Hoechst into the tumors | distribution of the fluorophore in the tumor ([2]; over a period of 6 days): distribution of the fluorophore across most of the tumor area

gel formation upon injection [3, 4]: formed gels upon injection
Compound: CC(C)C(=O)OCC1O[C@H](OCC2O[C@@H](O[C@]3(COC(=O)C(C)C)O[C@H](COC(=O)C(C)C)[C@@H](OC(=O)C(C)C)[C@H]3OC(=O)C(C)C)C(OC(=O)C(C)C)[C@@H](OC(=O)C(C)C)[C@@H]2OC(=O)C(C)C)C(OC(=O)C(C)C)[C@@H](OC(=O)C(C)C)[C@H]1OC(=O)C(C)C (stereo partly drawn) [Raffinose undecaisobutyrate, Raffinose Undecaisobutyrate]

gel formation upon injection [3, 4]: formed gels upon injection
Compound: CCC(=O)OCC1O[C@@H](O[C@H]2OC(COC(=O)CC)[C@@H](OC(=O)CC)[C@H](OC(=O)CC)C2OC(=O)CC)C(OC(=O)CC)C(OC(=O)CC)[C@H]1OC(=O)CC (stereo partly drawn) [Trehalose octapropionate, Trehalose Octapropionate]

Compound: O=C1OC2(c3ccc(O)cc3Oc3cc(O)ccc32)c2ccccc21 [fluorescein free acid]
Log P [1]: ~1.8

Compound: NNC(=O)c1ccncc1 [isoniazide]
Log P [1]: ~−0.8

Compound: Nc1n[n+]([O-])c2ccccc2[n+]1[O-] [tirapazamine]
Log P [1]: ~−0.06

Compound: CC(=O)OC[C@H]1O[C@@H](O[C@H]2[C@H](OC(C)=O)[C@@H](OC(C)=O)C(OC(C)=O)O[C@@H]2COC(C)=O)[C@H](OC(C)=O)[C@@H](OC(C)=O)[C@H]1OC(C)=O (stereo partly drawn) [α,β Lactose octaacetate, α,β-Lactose Octaacetate]
injectability ([3]; 20 wt % DMSO or 20 wt % propylene carbonate): this occurs with difficulty due to high viscosity | gel formation upon injection [3, 5]: formation of an amorphous solid (gel) was seen

Compound: CC(C)C(=O)OC[C@H]1O[C@@H](O[C@H]2[C@H](OC(=O)C(C)C)[C@@H](OC(=O)C(C)C)C(OC(=O)C(C)C)O[C@@H]2COC(=O)C(C)C)[C@H](OC(=O)C(C)C)[C@@H](OC(=O)C(C)C)[C@H]1OC(=O)C(C)C (stereo partly drawn) [α,β lactose octaisobutyrate, α,β-Lactose Octaisobutyrate]
gel formation upon injection ([3]; 2-40 wt % glycerol trioctanoate, with DMSO/NMP/EtOH, ~40-60 uL injected into PBS): formation of an amorphous solid (gel) was seen | gel formation upon injection [3, 5]: formation of an amorphous solid (gel) was seen | appearance of the injected solid ([3]; pure triglyceride used as solvent (40 wt % glycerol trioctanoate alone), up to 24 h after injection): very soft, transparant and could easily be manipulated in shape

Compound: CCC(=O)OC[C@H]1O[C@@H](O[C@H]2[C@H](OC(=O)CC)[C@@H](OC(=O)CC)C(OC(=O)CC)O[C@@H]2COC(=O)CC)[C@H](OC(=O)CC)[C@@H](OC(=O)CC)[C@H]1OC(=O)CC (stereo partly drawn) [α,β lactose octapropionate, α,β-Lactose Octapropionate]
gel formation upon injection [3, 5]: formation of an amorphous solid (gel) was seen

injection into PBS and gel-formation [3]: successful
Compound: CCC(=O)OCC1OC(OC(=O)CC)C(OC(=O)CC)[C@@H](OC(=O)CC)[C@@H]1O[C@H]1OC(COC(=O)CC)[C@@H](OC(=O)CC)[C@H](OC(=O)CC)C1OC(=O)CC (stereo partly drawn) [α,β maltose octapropionate, α,β-Maltose Octapropionate]
gel formation upon injection [3, 5]: formation of an amorphous solid (gel) was seen

gel formation upon injection [3, 4]: formed gels upon injection | injection into PBS and gel-formation [3]: successful
Compound: CCC(=O)NC1C(OC(=O)CC)OC(COC(=O)CC)[C@@H](OC(=O)CC)[C@@H]1OC(=O)CC (stereo partly drawn) [α,β-D-glucosamine pentapropionate, α,β-D Glucosamine Pentapropionate]
gel formation upon injection [3, 5]: formation of an amorphous solid (gel) was seen

Compound: CC(C)C(=O)NC1[C@@H](OC(=O)C(C)C)OC(COC(=O)C(C)C)[C@@H](OC(=O)C(C)C)[C@@H]1OC(=O)C(C)C (stereo partly drawn) [α-D-glucosamine pentaisobutyrate, α-D Glucosamine Pentaisobutyrate]
gel formation upon injection [3, 5]: formation of an amorphous solid (gel) was seen

Compound: CCC(=O)NC1[C@@H](OC(=O)CC)OC(COC(=O)CC)[C@@H](OC(=O)CC)[C@@H]1OC(=O)CC (stereo partly drawn) [α-D-glucosamine pentapropionate, α-D Glucosamine Pentapropionate]
gel formation upon injection [3, 5]: formation of an amorphous solid (gel) was seen

Compound: CCC(=O)OCC1O[C@H](O[C@@H]2C(COC(=O)CC)O[C@@H](OC(=O)CC)C(OC(=O)CC)[C@H]2OC(=O)CC)C(OC(=O)CC)[C@@H](OC(=O)CC)[C@@H]1OC(=O)CC (stereo partly drawn) [β maltose octapropionate, β-Maltose Octapropionate]
gel formation upon injection [3, 5]: formation of an amorphous solid (gel) was seen

gel formation upon injection [3, 4]: formed gels upon injection
Compound: CC(C)C(=O)OCC1O[C@H](O[C@@H]2C(COC(=O)C(C)C)O[C@@H](OC(=O)C(C)C)C(OC(=O)C(C)C)[C@H]2OC(=O)C(C)C)C(OC(=O)C(C)C)[C@@H](OC(=O)C(C)C)[C@@H]1OC(=O)C(C)C (stereo partly drawn) [β-maltose octaisobutyrate, β-Maltose Octaisobutyrate]

gel formation upon injection [3, 4]: formed gels upon injection
Compound: Trehalose Octaisobutyrate
